Key:
DRG neurons [1] = experiment: Axonal degeneration (degeneration index) in cultured DRG neurons; type: cell-based; conditions: DRG neurons treated with 100 nM for the indicated times (FIG. 7C)
Protocol: (§1) FIG. 7A-7D. Bortezomib induces delta-2-tubulin at the onset of axonal degeneration. (A) Representative immunofluorescence of D2 and βIII-tub staining in DRG neurons treated with 100 nM of Bortezomib for the indicated times. Bar, 50 μm. (B) Ratio analysis of D2/βIII-tubulin levels measured by immunofluorescence of fixed cells treated as in A. **, p≤0.01, ****, p≤0.0001 by t-test (unpaired, two-tailed). […] Data are mean values±SEM from 3 experiments. (D) Number of retraction bulbs per field in DRG neurons treated with 100 nM of Bortezomib for the indicated times. **, p≤0.01.
FIG. 9A-9E. Delta-2-tubulin accumulation is sufficient to drive axonopathy. (A) Schematic of the enzymes involved in D2 generation. (B) Immunoblot of tubulin tyrosine ligase (TTL), D2 and tyrosinated (TYR) tubulin levels in adult DRG neurons (14 DIV) silenced of TTL expression at 7 DIV. (C) Representative immunofluorescence images of DRG neurons as in B. (D) Axonal degeneration and number of retraction bulbs per field in DRG neurons treated as in B. (E) Axonal degeneration in DRG neurons that overexpress D2-(PVLX-EGFP-D2Tub) or WT-tubulin (PVLX-EGFP-Tub). Data are mean values±SEM from 3 experiments. ***, p≤0.001; **, p≤0.01, *p≤0.05 by t-test (unpaired, two-tailed). Bar, […].
FIG. 14A-14D. […]
Peripheral neurons from patients suffering from CIPN were analyzed for delta-2-tubulin expression. […]

DRG neurons [2] = experiment: Mitochondrial motility in DRG neurons (mito-DsRed kymographs); type: cell-based; conditions: 100 nM for 24 hr (FIG. 15D)
Protocol: FIG. 15A-15F. D2 accumulation is necessary and sufficient to affect mitochondria motility. (A) Representative kymographs of mitochondrial motility in DRG neurons (7 DIV) infected for 4 days with PVLX-EGFP-D2- or WT-Tubulin lentivirus prior to 72 hr infection with mito-DsRed lentivirus. (B) Quantification of the percentage of moving mitochondria as in A. Videos (10 s/frame for 30 min). (C, F) Percentage of different mitochondria movement states, Dynamic Pause (DP), Stationary (STA), Anterograde Running (AR), Retrograde Running (RR) (1 s/frame for 3 min, C), (10 s/frame for 30 min, F). (D) Representative kymographs of mitochondrial motility in DRG neurons (7 DIV) infected for 4 days with ShCCP1 or shControl lentivirus prior 72 hr infection with mito-DsRed lentivirus followed by Bortezomib treatment (100 nM for 24 hr). (E) Quantification of the percentage of moving mitochondria as in D. Videos (10 s/frame for 30 min). […]
To determine the effect bortezomib and delta-2 tubulin accumulation have on mitochondrial motility, DRG neurons were transduced with lentivirus to express wild-type tubulin or delta-2 tubulin. […] Expression of delta-2 tubulin affected every state of mitochondrial movement analyzed except for the stationary state (STA) (FIG. 15C). The effect of CCP1 knockdown on mitochondrial movement in the presence of bortezomib was also analyzed.

delta-2-tubulin [3] = experiment: Delta-2-tubulin levels in cultured neurons (western blot, immunofluorescence); type: cell-based; conditions: for delta-2-tubulin expression: cultured hippocampal and DRG neurons (FIG. 6)
Protocol: FIG. 6. Bortezomib induces delta-2-tubulin in DRG neurons as shown by western blot analysis of delta-2-tubulin levels from whole cell lysates of adult DRG neurons treated with Bortezomib and immunofluorescence of delta-2-tubulin in cultured DRG neurons treated with Bortezomib.
as §1
FIG. 12. (A) Immunoblot of D2 levels from whole cell lysates of adult DRG neurons (14 DIV) treated with increasing doses of Bortezomib for the indicated times. (B) IB of D2 levels in the MT pellet (P) and soluble tubulin (S) fractions isolated from adult DRG neurons (8 DIV) treated with 100 nM of Bortezomib for the indicated times.
(§2) Peripheral neurons from patients suffering from CIPN were analyzed for delta-2-tubulin expression. […] In addition.

DRG neurons [4] = experiment: EGFP-EB3 analysis of microtubule dynamics in DRG neurons; type: cell-based; conditions: DRG neurons 7 DIV, 100 nM, prior to delta-2-tubulin induction (FIG. 8)
Protocol: FIG. 8. Bortezomib induces MT stability without affecting MT dynamics prior to D2 induction. EGFP-EB3 time course analysis of MT dynamics parameters in DRG neurons (7 days in vitro (DIV)) treated with 100 nM Bortezomib for the indicated times. Data were pulled from up to 300 comets and 12-15 neurites for each group and analyzed by one-way ANOVA, multiple comparison. (NS, non-significant).
(§3) Microtubule dynamics were analyzed in DRG neurons following bortezomib treatment. […] TTL binds αβ-tubulin dimer and catalyzes the post-translational addition of a tyrosine to the C-terminal end of detyrosinated α-tubulin. Song et al., J. of Bio. Chem. 290(23):14765-14775 (2015).

[5] = test system: tubulin tyrosine ligase (TTL); experiment: Immunoblot of tubulin tyrosine ligase (TTL) and D2 levels in adult DRG neurons; type: cell-based; conditions: adult DRG neurons 14 DIV, 100 nM (FIG. 11)
Protocol: FIG. 11. Immunoblot of tubulin tyrosine ligase (TTL) and D2 levels in adult DRG neurons (14 DIV) treated with 100 nM Bortezomib.
as §3

delta-2-tubulin [6] = experiment: Quantitative immunofluorescence of tubulin post-translational modifications in DRG and sural nerve of treated rats; type: in vivo, female Wistar rats
Protocol: FIG. 2. Immunofluorescence analysis of selected α-tubulin post-translational modifications in neuronal tissue from chronically treated rats. Relative tubulin post-translational modifications levels measured by quantitative immunofluorescence in randomly selected dorsal root ganglion cell bodies (DRG) and sural nerve (SN) from rats (4 per group) treated with chronic (0.2 mg/kg, 3× week for 8 weeks) doses of Bortezomib. Data are mean values±SEM. ****, p≤0.0001; ***, p≤0.001; **, p≤0.01; *, p≤0.05 by ANOVA (in red,) or unpaired, two-tailed t-test (in black).
FIG. 3A-3C. […] (A) Representative immunofluorescence staining of DRG isolated from rats acutely treated with Bortezomib. (B) Relative tubulin post-translational modifications levels measured by quantitative immunofluorescence in randomly selected DRG and SN from rats (4 per group) treated with acute (i.v. 0.2 mg/kg; 24 hr) doses of Bortezomib. Data are mean values±SEM, ****, p≤0.0001; ***, p≤0.001; **, p≤0.01; *, p≤0.05 by ANOVA (A in red,) or unpaired, two-tailed t-test (A in black). (C) Schematic of the enzymes involved in D2 generation.
FIG. 13A-13E. […] (A) Immunofluorescence staining of Peripherin (smaller unmyelinated C-fibers) or (B) NF200 (large myelinated A-β fibers)(C) TrkC (proprioceptive)(D) TrkA (nociceptive) in DRG L4-L5 dissected from rats treated with Bortezomib for 24 hr. (E) Correlation between peripherin, NF200, TrkC, TrkA and D2 intensity values in randomly selected DRG cell bodies was calculated by using Pearson coefficient (r). Scale bar, 50 μm.
To determine the effects of bortezomib on the post-translation modifications of tubulin, female Wistar rats were treated with single or multiple administrations pf bortezomib (5 rats for each treatment). Acute treatment included a single intravenous administration of bortezomib at a concentration of 0.2 mg/kg. Chronically treated rats were treated with bortezomib for a total of 8 weeks, with administration of bortezomib three times per week at a concentration of 0.2 mg/kg.
To determine the effect of bortezomib on tubulin expression, DRGs were analyzed for delta-2-tubulin expression. […] Further analysis of other unrelated chemotherapy-induced peripheral neuropathy (CIPN) drugs was performed to determine their effect on delta-2-tubulin expression levels. […] Additional experiments were performed to determine whether DRGs with different sensory modalities and diameters are preferentially affected by bortezomib treatment.

delta-2-tubulin [7] = experiment: Delta-2-tubulin in sural nerve biopsy of CIPN patients (immunofluorescence, immunoblot); type: in vivo; conditions: CIPN patients (FIG. 5)
Text: FIG. 5A-5C. Bortezomib induces delta-2-tubulin in CIPN patients. (A) Representative immunofluorescence staining of SN isolated from a patient affected by CIPN. (B) Ratio analysis of D2/βIII-tubulin levels measured by immunofluorescence of fixed tissue from one SN biopsy. Data are mean values from 3 sections±SEM, ****, p<0.0001 by t-test (unpaired, two-tailed). (C) Immunoblot of D2 levels in whole cell lysates from one SN biopsy. Tyr, tyrosinated tubulin.
as §2

[8] = Dynamic test, plantar test and electrophysiological tests in rats chronically treated with bortezomib; type: in vivo, female Wistar rats; conditions: chronic: 0.2 mg/kg, three times per week, 8 weeks
Protocol: FIG. 1A-1D. Chronic doses of bortezomib affect animal behavior and nerve function. (A) Hind-paw withdrawal response to mechanical stimulus (10-50 g). (B) Plantar withdrawal latency response to heat source (infra-red light). Dynamic and plantar tests were performed before (baseline value), after 4-week and at the end point of treatment with Bortezomib. Data are expressed as mean values±SD, n animals=12. (C, D) Caudal and digital nerve conduction velocity (NCV) and amplitude measured in rats treated chronically with Bortezomib. n=8-10 per group; *p<0.05 compared to control.
To determine the effects of bortezomib on the post-translation modifications of tubulin, female Wistar rats were treated with single or multiple administrations pf bortezomib (5 rats for each treatment). Acute treatment included a single intravenous administration of bortezomib at a concentration of 0.2 mg/kg. Chronically treated rats were treated with bortezomib for a total of 8 weeks, with administration of bortezomib three times per week at a concentration of 0.2 mg/kg. […] Certain post-translation modifications of α-tubulin, e.g., acetylation, are reduced in dorsal root ganglions neurons (DRGs) and sural nerves (SNs) from rats chronically treated with bortezomib (FIG. 2) and in rats acutely treated with bortezomib (FIG. 3).

| Compound | axonopathy (DRG neurons [1]) | movement of mitochondria (DRG neurons [2]) | delta-2-tubulin induction relative to axonal degeneration (degeneration index) (delta-2-tubulin [3]; DRG neurons, 100 nM, time course (FIG. 7)) | delta-2-tubulin expression (delta-2-tubulin [3]) | microtubule dynamics (rescue/nucleation frequency, catastrophe frequency, comet density, growth rate) (DRG neurons [4]) | TTL expression, western blot [5] | delta-2-tubulin, western blot [5] | delta-2-tubulin in proprioceptive and nociceptive DRG neurons (delta-2-tubulin [6]; DRG L4-L5 of rats treated for 24 hr (FIG. 13)) | delta-2-tubulin in DRG cell bodies, compared to βIII-tubulin and control (delta-2-tubulin [6]; acute treatment, single i.v. 0.2 mg/kg, 24 hr (FIG. 3)) | delta-2-tubulin in DRG cell bodies, compared to βIII-tubulin and control (delta-2-tubulin [6]; chronic treatment, 0.2 mg/kg 3x week for 8 weeks (FIG. 2)) | post-translation modifications of α-tubulin, e.g., acetylation, in DRGs and SNs (delta-2-tubulin [6]; rats acutely treated, single i.v. 0.2 mg/kg, 24 hr (FIG. 3)) | post-translation modifications of α-tubulin, e.g., acetylation, in DRGs and SNs (delta-2-tubulin [6]; rats chronically treated, 0.2 mg/kg 3x week for 8 weeks (FIG. 2)) | delta-2-tubulin expression in peripheral neurons, e.g., sural nerve (delta-2-tubulin [7]) | animal behavior and nerve function (dynamic test, plantar test, electrophysiological tests) [8] | delta-2-tubulin in DRG neurons compared to control (delta-2-tubulin [6]; unrelated CIPN drugs, acute (FIG. 4)) |
| --- | --- | --- | --- | --- | --- | --- | --- | --- | --- | --- | --- | --- | --- | --- | --- |
| CC(C)C[C@H](NC(=O)[C@H](Cc1ccccc1)NC(=O)c1cnccn1)B(O)O [bortezomib] | Time dependent increase of axonopathy | greatly affected the movement of mitochondria | induced delta-2-tubulin at the onset of axonal degeneration | increase in delta-2-tubulin expression | does not affect microtubule dynamics | reduction of TTL expression | accumulation of delta-2-tubulin | accumulate delta-2-tubulin | increased | increased | reduced | reduced | induced delta-2-tubulin expression | affected animal behavior and nerve function | – |
| CC(=O)O[C@H]1C(=O)[C@@]2(C)[C@H]([C@H](OC(=O)c3ccccc3)[C@]3(O)C[C@H](OC(=O)[C@H](O)[C@@H](NC(=O)c4ccccc4)c4ccccc4)C(C)=C1C3(C)C)[C@]1(OC(C)=O)CO[C@@H]1C[C@@H]2O [paclitaxel] | – | – | – | increase in delta-2-tubulin expression | – | – | – | – | – | – | – | – | – | – | acutely accumulated delta-2-tubulin |

From patent publication US12663425B2, “Delta-2-tubulin as a biomarker and therapeutic target for peripheral neuropathy” (THE TRUSTEES OF COLUMBIA UNIVERSITY IN THE CITY OF NEW YORK, priority 2017, dated 2026)
